Assay [1] deals with S. aureus CI3. The assay can be described thus: Phage combined with ½ MIC antibiotics on planktonic S. aureus (OD600), CI3. The assay is classed as cell-based, Staphylococcus aureus. The note with it: ½ MIC antibiotic, phage MOI=0.2, 24 hours. How it is done: (§1) Initial screening was performed in 100 μl in 96 well plates, with follow up experiments in 10 mL culture volume. S. aureus strains were grown on 1.5% Tryptone Soya Agar (TSA) at 37° C. overnight. Single colonies were transferred to Tryptone Soya Broth (TSB) to generate a culture with a starting concentration of 5×10^5 CFU/ml. […] Antibiotics were added to the cultures at ½ MIC (according to the pretest MIC of antibiotics) if required. Optical density (OD) readings at 600 nm were recorded at 24 hours to assess the growth of bacteria co-inoculated with phage unless otherwise specified. Uninoculated, fresh media was included as a sterility control.

Assay [2] concerns S. aureus CI3. The experiment in a line: Rat rhinosinusitis model, efficacy arm (sinus mucosa CFU, biofilm biomass, histopathology). The assay is classed as in vivo, Sprague Dawley rats. An excerpt: Rat nasal tissues were fixed in 10% neutral buffered formalin. Tissue samples were then decalcified using 9.5% nitric acid in 1% ethylenediaminetetracetic acid (EDTA), processed to paraffin wax, and 6 μm sections cut and stained with H&E. The samples were examined by a veterinary pathologist blinded to the treatments given.
An established murine rhinosinusitis model was used with modifications (see YU C-j et al., Chinese Journal of Otorhinolaryngology-Skull Base Surgery 6, 2011; Zhang F et al., Am J Rhinol Allergy 27 (5): 361-366, 2013; and Jin M et al., Ear Arch Oto-Rhino-L 268 (6): 857-861, 2011). […] The sponges were placed at approximately 15 mm from the anterior nostril, located in the ostiomeatal complex. The rats were monitored for a nine-day period to allow for mucosal biofilms to form, and, on the tenth day, the sponges were removed. A two-day recovery was given to the rat before treatments begun. […] Treatments were administered intranasally twice a day for 14 days. Rats were monitored for weight and respiratory alterations (respiration rate; nasal discharge, hyperaemia or pruritus; and sneezing) during treatment, and, 14 days post-treatment initiation, the rats were humanely sacrificed. Their sinus mucosa was harvested for CFU counting, biofilm quantification, histopathology, and phage enumeration. […]
The quantification of biofilm biomass on sinus mucosa was determined using an established protocol (Singhal D et al., editors. Quantitative analysis of in vivo mucosal bacterial biofilms. International Forum of Allergy & Rhinology; 2012: Wiley Online Library (27). Briefly, the frontal sinus mucosa was harvested and placed into Dulbecco's Modified Eagle's Medium (Life Technologies, Carlsbad, CA, United States of America) on ice. One piece of mucosa from each frontal sinus was stained with a LIVE/DEAD® BacLight Bacterial Viability Kit (Life Technologies Australia). The stained mucosa was then examined at 20× magnification using a confocal laser scanning microscope (Zeiss LSM700, Carl Zeiss AG, Oberkochen, Germany). […]

For assay [3], the system named is S. aureus isolates (15 clinical isolates and 2 ATCC strains). The experiment in a line: Antibiotic sensitivity testing, 17 isolates. The following applies: of 17 S. aureus isolates. The assay is classed as cell-based, Staphylococcus aureus. As to the method: S. aureus ATCC51650 and ATCC25923 were obtained from the American Type Culture Collection (Manassas, VA, United States of America) and used as reference strains. In addition, a total of 15 S. aureus clinical isolates (CIs) were isolated from the sinonasal cavities of chronic sinusitis (CRS) patients. In each case, S. aureus was cultured by an independent diagnostic laboratory and the antibiotic susceptibility determined by disc diffusion on Mueller-Hinton agar per Clinical and Laboratory Standards Institute (CLSI) recommendations (Adelaide Pathology Partners, Mile End, SA, Australia). Bacteria were isolated on Columbian horse blood agar plates, colistin nalidixic acid plates, or cystine lactose electrolyte-deficient plates (Oxoid Australia Pty Ltd, Thebarton, SA, Australia). Positive cultures were confirmed to be S. aureus using latex agglutination testing.
(§2) The minimum inhibitory concentration (MIC) of amoxicillin, vancomycin, erythromycin, clindamycin and azithromycin against the S. aureus strains was assessed using the broth microdilution technique as previously described (Wiegand I et al., Nature protocols 3 (2): 163-175, 2008) and breakpoints defined according to CSLI guidelines. Clinical strains resistant to at least one antibiotic in three or more antibiotic categories were defined as multidrug resistant (MDR).

For assay [4], the system named is S. aureus CI3. The experiment in a line: Antibiotic sensitivity of the isolate selected for in vivo experiments. The class given is cell-based, Staphylococcus aureus. As to the method:
as §2
A fresh culture of CI3 on 1.5% TSA plates was prepared two days before inoculation. A single colony was resuspended in 0.9% saline (ca. 2 ml) to turbidity reading 0.5 McFarland Units and then a 1 in 100 dilution in TSB was cultured overnight one day before the in vivo experiment. CI3 pellets were harvested and resuspended in fresh TSB to reach 2.5×10^9 Colony Forming Units (CFU)/ml.

Assay [5] relates to S. aureus ATCC51650 and CIs (CI2, CI3, CI4, CI6, CI7, CI8, CI9, and CI11). The class given is cell-based, Staphylococcus aureus. As to the method: as §1
A synergistic effect was defined as a statistically significant decrease in optical density (OD) that was larger than the combined decrease in OD of antibiotic and phage only controls.

Molecules are shown by their SMILES. Like-named read-outs stand apart in the source and are kept apart here.

For the compound `CC[C@H]1OC(=O)[C@H](C)[C@@H](O[C@H]2C[C@@](C)(OC)[C@@H](O)[C@H](C)O2)[C@H](C)[C@@H](O[C@@H]2O[C@H](C)C[C@H](N(C)C)[C@H]2O)[C@](C)(O)C[C@@H](C)CN(C)[C@H](C)[C@@H](O)[C@]1(C)O` [azithromycin], the “synergistic effects with phage J-Sa36, Sa83 and Sa87 on bacterial viability (OD600)” value in the assay with S. aureus CI3 [1] is reported as “synergistic effects”. Moreover, the “biofilm biomass on sinus mucosa compared to control, single agent” value in the assay on S. aureus CI3 [2] (0.5×10^10 PFU/ml Sa87 or ½ MIC antibiotic alone) is “significant increase in biomass”. Also, the “histopathology of the maxilloturbinates, single agent” value in the assay with S. aureus CI3 [2] (Sa87, ½ MIC clindamycin or ½ MIC azithromycin only) is “evidence of cilial denudation and surface epithelial erosion”. Besides, in assay [3], the “isolates exhibiting resistance to the antibiotic” value is given as “two”. Further, the “antibiotic sensitivity of the isolate” value in the assay on S. aureus CI3 [4] is recorded as “sensitive”.
With `CC[C@H]1OC(=O)[C@H](C)[C@@H](O[C@H]2C[C@@](C)(OC)[C@@H](O)[C@H](C)O2)[C@H](C)[C@@H](O[C@@H]2O[C@H](C)C[C@H](N(C)C)[C@H]2O)[C@](C)(O)C[C@@H](C)C(=O)[C@H](C)[C@@H](O)[C@]1(C)O` [erythromycin], the “synergistic effects with phage J-Sa36, Sa83 and Sa87 on bacterial viability (OD600)” value with S. aureus CI3 [1] is “synergistic effects”. Moreover, the “isolates exhibiting resistance to the antibiotic” value in assay [3] is “three”.
As to `CC1(C)S[C@@H]2[C@H](NC(=O)[C@H](N)c3ccc(O)cc3)C(=O)N2[C@H]1C(=O)O` [amoxicillin], in assay [5] (½ MIC antibiotic with J-Sa36, Sa83 or Sa87 (MOI=0.2)), the “additive or synergistic effect of the antibiotic combined with phage” value was “None of the combinations of phage with either of the cell wall actives (amoxicillin and vancomycin) showed any significant additive or synergistic effects”.
For `CN[C@H](CC(C)C)C(=O)N[C@H]1C(=O)N[C@@H](CC(N)=O)C(=O)N[C@H]2C(=O)N[C@H]3C(=O)N[C@H](C(=O)N[C@H](C(=O)O)c4cc(O)cc(O)c4-c4cc3ccc4O)[C@H](O)c3ccc(c(Cl)c3)Oc3cc2cc(c3O[C@@H]2O[C@H](CO)[C@@H](O)[C@H](O)[C@H]2O[C@H]2C[C@](C)(N)[C@H](O)[C@H](C)O2)Oc2ccc(cc2Cl)[C@H]1O` [vancomycin], the “additive or synergistic effect of the antibiotic combined with phage” value in assay [5] is “None of the combinations of phage with either of the cell wall actives (amoxicillin and vancomycin) showed any significant additive or synergistic effects”.

For the origin of these results see patent US20260286316A1, “METHOD OF PRODUCTION OF MODIFIED PHAGE AND METHOD OF TREATMENT USING SAME” (priority 2022, published 2026).
